Several values for one entry are separate records, joined by “and”; a condition that tells them apart may be missing. Equal values may be shown once.

Data on 17 molecules can be found in publication PMC11720106, “Synthesis of Pyrazole-Based Inhibitors of the Bacterial Enzyme N-Succinyl-L,L-2,6-Diaminopimelic Acid Desuccinylase (DapE) as Potential Antibiotics” (International Journal of Molecular Sciences, 2024).

The target of assay [1] is T1, HiDapE (Haemophilus influenzae, UniProt P44514). The experiment in a line: Discontinuous ninhydrin-based HiDapE inhibition assay. Conditions: 8 nM HiDapE, 2 mM N6-methyl-L,L-SDAP; for IC50: 5–200 μM inhibitor; for inhibition at 100 µM: pH 7.5, 100 μM inhibitor. Type of assay: biochemical. The procedure:
Inhibitory Assay Protocol: A discontinuous inhibition assay was performed utilizing a Techne PCR Thermal Cycler System. The volume of each component was adjusted to fit a total reaction volume of 100 μL. The final potential inhibitor concentration was 100 μM for pyrazoles 7a–7r for screening experiments or 5–200 μM for IC50 experiments. All potential inhibitors were dissolved in neat dimethylsulfoxide (DMSO), and the pre-assay concentrations were adjusted to give a final concentration of 5% DMSO in the assay. The final HiDapE concentration was 8 nM. To a 50 mM HEPES (pH 7.5) buffered solution at 30 °C was added the selected inhibitor followed by HiDapE and incubated for 10 min. N^6-Methyl-L,L-SDAP (2 mM) was added, and the mixture was allowed to react for 10 min, followed by heating at 100 °C for 1 min and then cooled to 0 °C for 1 min. A 2% ninhydrin solution (100 μL) was added, and the mixture was mixed well by rapid pipetting while cooled at 0 °C. The reaction was then heated at 80 °C for 15 min. The absorbance of an 80 μL aliquot was recorded at 570 nm on a BioTek Synergy 2 microplate reader (Biotek Instruments, Winooski, VT, USA). All inhibition assays were performed in triplicate. The data were then exported and analyzed using Prism (version 10.4.1, GraphPad Prism, Boston, MA, USA).

In assay [2] the target is T1, HiDapE. The experiment in a line: Discontinuous kinetic competition assay with HiDapE. The class given is biochemical. The procedure:
We performed kinetic competition assays to investigate and confirm the binding mode of the pyrazole inhibitors. […] The velocity of the HiDapE enzyme was measured with different concentrations of substrate from 0 to 100 μM, and the plot is shown in Figure 2. After running the AICc statistical analysis to compare noncompetitive and competitive models, it was determined that a competitive binding mode is over 100 times more likely than noncompetitive binding with a 99.2% probability.
Kinetic assay Protocol: A discontinuous kinetic assay was performed utilizing a Techne PCR Thermal Cycler System. The volume of each component was adjusted to fit a total reaction volume of 100 μL. The final potential inhibitor concentration was 0, 20, 40, 60, and 100 μM for pyrazole 7r, where the inhibitor was dissolved in dimethylsulfoxide (DMSO), and the pre-assay concentrations were adjusted to give a final concentration of 5% DMSO in the assay. The in-assay HiDapE concentration was 8 nM. To a 50 mM HEPES (pH 7.5) buffered solution at 30 °C was added the selected inhibitor followed by HiDapE and incubated for 10 min. N^6-Methyl-L,L-SDAP at varied concentrations (0–8 mM) were added, and the mixture was allowed to react for 10 min, followed by heating at 100 °C for 1 min and then cooled to 0 °C for 1 min. A 2% ninhydrin solution (50 μL) was added, and the mixture was mixed well by rapid pipetting while cooled at 0 °C. The reaction was then heated at 80 °C for 15 min. The absorbance of an 80 μL aliquot was recorded at 570 nm on a BioTek Synergy 2 microplate reader. All concentrations were performed in triplicate. The data were then exported and analyzed using Prism using a non-linear regression Michaelis–Menten equation and using AICc statistical analysis to determine which inhibitory binding mode was preferred.

Assay [3] deals with T1, HiDapE. Briefly: Thermal shift assay (SYPRO Orange). Type of assay: binding. The following applies: for Tm1 (HiDapE): 200 nM enzyme, 10X dye. How it is done:
A thermal shift assay was conducted to observe changes in the thermal stability of DapE under various concentrations of the inhibitor (R)-7q, as summarized in Table 2. These studies were conducted on a Step One Real-Time PCR System^TM (Applied Biosystems, Waltham, MA, USA) and associated QuantStudio software (Version 7) through the fluorescence of the SYPRO Orange dye (Fisher Scientific, Waltham, MA, USA) during protein denaturation. We also used the thermal shift assay results to calculate the Ki value of pyrazole (R)-7q. […] Additionally, we observed a subsequent Tm2 at 78.0 °C involving a destabilization of the enzyme, as shown by the approximate −3 °C negative shift in melt temperature as the inhibitor increases in concentration, indicating at this elevated temperature that the inhibitor is binding to primarily the molten globule state. We have previously observed the second melt temperature with the DapE enzyme.
Thermal Shift Assay Protocol: Thermal shift studies were conducted on a Step One Real-Time PCR System and the associated QuantStudio software. Protein denaturation was measured by detecting the change in fluorescence of the SYPRO Orange dye. HiDapE was used at a final concentration of 200 nM, and SYPRO Orange was used at a final concentration of 10×. The experiment was carried out in 10 μL triplicates in 50 mM HEPES buffer at pH 7.5 in nanopure water, and the inhibitor concentrations were selected based on the half-maximal inhibitory concentration (IC50) values of the inhibitor. Sample solutions were dispensed into a 96-well optical reaction plate (Thermo Fisher Scientific, Kalamazoo, MI, USA), and the plate was sealed with an optical PCR plate sheet (Thermo Fisher Scientific, Kalamazoo, MI, USA). The assay was run according to Bhayani. Melting curves were obtained from the negative derivative and exported from the instrument to Microsoft Excel (Version 2402). The negative first derivatives of the melting curves were differentiated into the […]. Tm values were plotted against the log [concentration], and the Ki values were calculated using a derived Van’t Hoff equation according to Bhayani

T1 sequence (P44514 whole entry): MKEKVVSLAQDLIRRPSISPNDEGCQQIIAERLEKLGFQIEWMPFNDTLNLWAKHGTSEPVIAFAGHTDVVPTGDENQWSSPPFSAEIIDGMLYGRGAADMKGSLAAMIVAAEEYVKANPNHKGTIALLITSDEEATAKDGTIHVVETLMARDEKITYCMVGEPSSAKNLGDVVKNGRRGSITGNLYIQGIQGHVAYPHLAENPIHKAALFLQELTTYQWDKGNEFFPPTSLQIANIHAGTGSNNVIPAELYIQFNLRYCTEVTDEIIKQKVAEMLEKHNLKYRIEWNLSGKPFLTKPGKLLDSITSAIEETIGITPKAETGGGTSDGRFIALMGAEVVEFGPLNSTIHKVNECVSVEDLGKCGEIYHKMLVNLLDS

In the case of `Cc1cc(SCC(=O)Nc2nccs2)n(-c2ccccc2)n1` [Compound 7a, 2-((3-Methyl-1-phenyl-1H-pyrazol-5-yl)thio)-N-(thiazol-2-yl)acetamide], the half-maximal inhibitory concentration (IC50) (in general, the concentration needed to halve the response being measured) in assay [1] (pH 7.5) is 22.4 µM. The inhibition (commonly the relative decrease from the control value, in per cent) at 100 µM in assay [1] (triplicate) was determined as 95.2 ± 0.6%.

Take `Cc1cc(SCC(=O)Nc2ccon2)n(-c2ccccc2)n1` [Compound 7b, N-(Isoxazol-3-yl)-2-((3-methyl-1-phenyl-1H-pyrazol-5-yl)thio)acetamide]: in assay [1] (triplicate), the inhibition at 100 µM was determined as 20.3 ± 3.6%.

`Cc1cc(SCC(=O)Nc2ccccc2)n(-c2ccccc2)n1` [Compound 7c, 2-((3-Methyl-1-phenyl-1H-pyrazol-5-yl)thio)-N-phenylacetamide]: in assay [1] (triplicate), the inhibition at 100 µM worked out at 80.5 ± 3%.

On to `Cc1cc(SCC(=O)Nc2ccccn2)n(-c2ccccc2)n1` [Compound 7d, 2-((3-Methyl-1-phenyl-1H-pyrazol-5-yl)thio)-N-(pyridine-2-yl)acetamide], for which, in assay [1] (pH 7.5), the IC50 was 17.9 µM. Besides, the inhibition at 100 µM in assay [1] (triplicate) turned out to be 85.7 ± 1.2%.

Turning to `Cc1ccc(NC(=O)CSc2cc(C)nn2-c2ccccc2)nc1` [Compound 7e, 2-((3-Methyl-1-phenyl-1H-pyrazol-5-yl)thio)-N-(5-methylpyridin-2-yl)acetamide], the inhibition at 100 µM in assay [1] (triplicate) was 64.3 ± 5.5%.

In the case of `Cc1cc(SCC(=O)Nc2ccc(Cl)cn2)n(-c2ccccc2)n1` [Compound 7f, N-(5-Chloropyridin-2-yl)-2-((3-methyl-1-phenyl-1H-pyrazol-5-yl)thio)acetamide], the inhibition at 100 µM in assay [1] (triplicate) amounted to 54.2 ± 0.3%.

Regarding `Cc1cc(SCC(=O)Nc2ncccn2)n(-c2ccccc2)n1` [Compound 7g, 2-((3-Methyl-1-phenyl-1H-pyrazol-5-yl)thio)-N-(pyrimidin-2-yl)acetamide], the inhibition at 100 µM in assay [1] (triplicate) is 32.4 ± 3.4%.

`Cc1cc(SCC(=O)Nc2cnccn2)n(-c2ccccc2)n1` [Compound 7h, 2-((3-Methyl-1-phenyl-1H-pyrazol-5-yl)thio)-N-(pyrazin-2-yl)acetamide]: in assay [1] (pH 7.5), the IC50 was 20.2 µM. Moreover, the inhibition at 100 µM in assay [1] (triplicate) was determined as 96.2%.

With `CCN(CC)C(=O)CSc1cc(C)nn1-c1ccccc1` [Compound 7j, N,N-Diethyl-2-((3-methyl-1-phenyl-1H-pyrazol-5-yl)thio)acetamide], in assay [1] (triplicate), the inhibition at 100 µM came out at 47.4 ± 7.2%.

As for `Cc1cc(SCC(=O)Nc2nc3ccccc3[nH]2)n(-c2ccccc2)n1` [Compound 7k, N-(1H-Benzo[d]imidazol-2-yl)-2-((3-methyl-1-phenyl-1H-pyrazol-5-yl)thio)acetamide], the inhibition at 100 µM in assay [1] (triplicate) turned out to be 36.9 ± 2.7%.

With `Cc1cc(SC(C)C(=O)Nc2nccs2)n(-c2ccccc2)n1` (centres unmarked) [Compound 7l, 2-((3-Methyl-1-phenyl-1H-pyrazol-5-yl)thio)-N-(thiazol-2-yl)propanamide], the inhibition at 100 µM in assay [1] (triplicate) is 28 ± 1.8%.

In the case of `Cc1cc(SC(C)C(=O)Nc2ccon2)n(-c2ccccc2)n1` (centres unmarked) [Compound 7m, N-(Isoxazol-3-yl)-2-((3-methyl-1-phenyl-1H-pyrazol-5-yl)thio)propanamide], the inhibition at 100 µM in assay [1] (triplicate) amounted to 19.5 ± 0.1%.

`Cc1cc(SC(C)C(=O)Nc2ccccc2)n(-c2ccccc2)n1` (centres unmarked) [Compound 7n, 2-((3-Methyl-1-phenyl-1H-pyrazol-5-yl)thio)-N-phenylpropanamide]: the inhibition at 100 µM in assay [1] (triplicate) worked out at 79.4 ± 3.6%.

On to `Cc1cc(SC(C)C(=O)NCc2ccccc2)n(-c2ccccc2)n1` (centres unmarked) [Compound 7o, N-Benzyl-2-((3-methyl-1-phenyl-1H-pyrazol-5-yl)thio)propanamide], for which, in assay [1] (triplicate), the inhibition at 100 µM came to 63.2 ± 1.8%.

Turning to `Cc1cc(SC(C)C(=O)Nc2ccccn2)n(-c2ccccc2)n1` (centres unmarked) [Compound 7p, 2-((3-Methyl-1-phenyl-1H-pyrazol-5-yl)thio)-N-(pyridine-2-yl)propanamide], the IC50 in assay [1] (pH 7.5) was 35.6 µM and 35.7 µM. Also, the inhibition at 100 µM in assay [1] (triplicate) is 97.4 ± 2%.

Turning to `Cc1cc(S[C@H](C)C(=O)Nc2ccccn2)n(-c2ccccc2)n1` [Compound 7q, (R)-2-((3-Methyl-1-phenyl-1H-pyrazol-5-yl)thio)-N-(pyridine-2-yl)propanamide], the % Inhibition (as a rule, the drop in the measured response relative to a control, in per cent) at 100 μM in assay [1] (100 μM inhibitor, pH 7.5, triplicate) is reported as 99.1 ± 1.6%. In assay [1] (pH 7.5), the half-inhibitory concentration (IC50) is 18.8 µM. For the same molecule, in assay [1] (triplicate), the inhibition at 100 µM is 99%. In assay [2] (AICc comparison of competitive and noncompetitive models), the “binding mode (mode of inhibition)” value was “competitive”. For the same molecule, the “likelihood of competitive over noncompetitive binding” value in assay [2] (AICc statistical analysis) is “over 100 times”. Moreover, the “probability of competitive binding mode” value in assay [2] (AICc statistical analysis) was 99.2%. For the same molecule, the “Tm1 (HiDapE)” value in assay [3] (1 μM inhibitor) was 50.8 +/− 0.6 °C; in assay [3] (5 μM inhibitor), 50.1 +/− 0.1 °C; in assay [3] (10 μM inhibitor) it was 50.2 +/− 0.1 °C; in assay [3] (20 μM inhibitor), 52.7 +/− 0.3 °C; in assay [3] (40 μM inhibitor) it was 55.7 +/− 0.3 °C; in assay [3] (60 μM inhibitor), 60.6 +/− 0.7 °C. For the same molecule, the “Tm1 (HiDapE)” value in assay [3] (80 μM inhibitor) was 61.3 +/− 0.5 °C; in assay [3] (100 μM inhibitor), 63.1 +/− 0.2 °C. Moreover, the midpoint of thermal melting (Tm) – broadly, the temperature at the midpoint of the melting transition – in assay [3] (as stated in the abstract) is 50.2 °C. Further, the Ki (as a rule, the dissociation constant of the complex between target and ligand, obtained from inhibition or displacement) in assay [3] (calculated from positive melt temperature shift at Tm1, Van't Hoff equation) is 17.3 ± 2.8 µM. Moreover, the “shift in melt temperature at Tm2” value in assay [3] (negative shift as the inhibitor increases in concentration, Tm2 78.0 °C) is around −3 °C. The “shift in melt temperature at Tm1” value in assay [3] (positive shift as the inhibitor increases in concentration, Tm1 50.2 °C) is “+13 °C”.

As to `Cc1cc(S[C@@H](C)C(=O)Nc2ccccn2)n(-c2ccccc2)n1` [Compound 7r, (S)-2-((3-Methyl-1-phenyl-1H-pyrazol-5-yl)thio)-N-(pyridine-2-yl)propanamide], the inhibition at 100 µM in assay [1] (triplicate) turned out to be 14.6 ± 9.5%.
